Assay results reported in ChEMBL document CHEMBL5241103, “Progress in the development of domain selective inhibitors of the bromo and extra terminal domain family (BET) proteins” (Eur J Med Chem, 2021).

How the values were obtained:
[1] = species on record: Homo sapiens; assay: Selectivity ratio of Kd for BRD4 BD1 (unknown origin) to Kd for BRD4 BD2 (unknown origin)
[2] = target: T1, Bromodomain-containing protein 2 (Homo sapiens, UniProt P25440); assay: Binding affinity to BDR2-BD1 (unknown origin) by TR-FRET assay
[3] = species on record: Homo sapiens; assay: Selectivity ratio of Kd for BRD2 BD1 (unknown origin) to Kd for BRD2 BD2 (unknown origin)
[4] = target: T1, Bromodomain-containing protein 2; assay: Binding affinity to BDR2- BD2 (unknown origin) by TR-FRET assay
[5] = target: T2, Bromodomain-containing protein 4 (Homo sapiens, UniProt O60885); assay: Inhibition of his 6 tagged BRD4 D1 (unknown origin) expressed in Escherichia coli BL21 (DE3) by fluorescence anisotropy assay
[6] = target: Mitogen-activated protein kinase 14 (Homo sapiens, UniProt Q16539)
Description: Binding affinity to p38 alpha (unknown origin) assessed as dissociation constant by DiscoverX kinomescan method

[7] = species on record: Homo sapiens; assay: Selectivity ratio of IC50 for BRD4 BD2 (unknown origin) to IC50 for BRD4 BD1 (unknown origin)
[8] = species on record: Homo sapiens; assay: Selectivity ratio of Ki for human BRD4 BD2 to Ki for BRD4 BD1
[9] = target: T2, Bromodomain-containing protein 4; assay: Binding affinity to human BRD4 BD2 assessed as inhibition constant incubated for 1 hr by competitive binding assay
[10] = target: T2, Bromodomain-containing protein 4; assay: Binding affinity to human BRD4 BD1 assessed as inhibition constant incubated for 1 hr by competitive binding assay
[11] = Inhibition of BRD BD2 (unknown origin) by alpha screen assay; design: species or system Homo sapiens
[12] = Inhibition of BRD BD1 (unknown origin) by alpha screen assay; design: species or system Homo sapiens
[13] = species on record: Homo sapiens; assay: Selectivity ratio of IC50 for BRD BD1 (unknown origin) to IC50 for BRD BD2 (unknown origin)

T1 sequence (P25440 whole entry): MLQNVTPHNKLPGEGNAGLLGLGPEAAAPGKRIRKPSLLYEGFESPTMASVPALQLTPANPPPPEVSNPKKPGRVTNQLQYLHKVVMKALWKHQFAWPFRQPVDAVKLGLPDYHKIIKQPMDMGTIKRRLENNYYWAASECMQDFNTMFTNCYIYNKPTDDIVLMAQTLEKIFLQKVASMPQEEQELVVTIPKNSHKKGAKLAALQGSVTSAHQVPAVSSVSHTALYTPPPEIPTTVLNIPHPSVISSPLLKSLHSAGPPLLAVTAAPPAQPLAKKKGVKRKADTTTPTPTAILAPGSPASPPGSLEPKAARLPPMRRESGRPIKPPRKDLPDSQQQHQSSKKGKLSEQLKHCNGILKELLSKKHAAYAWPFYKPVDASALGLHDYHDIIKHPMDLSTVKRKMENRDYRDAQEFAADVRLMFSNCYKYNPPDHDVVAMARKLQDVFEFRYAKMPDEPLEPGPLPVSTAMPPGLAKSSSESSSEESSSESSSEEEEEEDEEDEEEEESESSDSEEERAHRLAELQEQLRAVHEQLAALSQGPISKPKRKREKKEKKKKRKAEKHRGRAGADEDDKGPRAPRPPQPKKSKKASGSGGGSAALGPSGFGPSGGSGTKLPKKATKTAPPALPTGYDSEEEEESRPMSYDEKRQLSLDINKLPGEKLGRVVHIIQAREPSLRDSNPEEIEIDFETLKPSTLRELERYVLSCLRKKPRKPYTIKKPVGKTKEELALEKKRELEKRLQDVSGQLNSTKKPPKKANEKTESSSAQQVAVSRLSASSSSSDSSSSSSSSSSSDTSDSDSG
Sequence of Mitogen-activated protein kinase 14 (Q16539 whole entry): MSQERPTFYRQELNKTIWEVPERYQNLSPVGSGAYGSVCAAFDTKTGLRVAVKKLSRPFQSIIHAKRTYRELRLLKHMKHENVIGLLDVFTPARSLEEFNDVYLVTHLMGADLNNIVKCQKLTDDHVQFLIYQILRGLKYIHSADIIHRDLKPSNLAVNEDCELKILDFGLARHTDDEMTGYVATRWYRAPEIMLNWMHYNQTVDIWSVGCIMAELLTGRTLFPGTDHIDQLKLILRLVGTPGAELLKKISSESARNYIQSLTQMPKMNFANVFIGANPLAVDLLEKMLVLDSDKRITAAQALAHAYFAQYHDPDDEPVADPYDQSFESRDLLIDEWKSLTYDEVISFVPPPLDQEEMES

`CC(=O)N1c2ccc(-c3cc[nH]n3)cc2[C@H](Nc2ccc(C#N)cc2)C[C@@H]1C` showed a Ratio [1] of 152, a Kd [2] of 0.49 µM and a Ratio [3] of 80. The Kd [4] was 0.006 µM.

Compound `Cc1cc(C)cc(Oc2nccc(-c3c(-c4ccc(C(F)(F)F)cc4)ncn3C3CCN(CCN)CC3)n2)c1` has an IC50 [5] of 0.13 µM, a Kd [6] of 1.9 µM and a Ratio IC50 [7] of 9.

`COc1ccc(NC(=O)c2ccc(NC3=C(C)C(=O)CC3)c(Cl)c2)cc1` showed a Ratio Ki [8] of 9, a Ki [9] of 0.718 µM and a Ki [10] of 0.077 µM.

`COc1cc(OC)c2c(=O)[nH]c(-c3cc(C)c(OCCN4CCCC4)c(C)c3)nc2c1` gave an IC50 [11] of 0.02 µM, an IC50 [12] of 1.16 µM and a Ratio IC50 [13] of 40.

`COC(=O)c1ccc(N[C@@H]2C[C@H](C)N(C(C)=O)c3ccc(-c4cccc(NC(C)=O)c4)cc32)cc1` gave a Kd [2] of 0.931 µM, a Ratio [3] of 67 and a Kd [4] of 0.014 µM.
